≈ marks a conversion by molar mass, not a printed value.
Legend:
[1] = tested on: Staphylococcus epidermidis; assay: Antibacterial activity against Staphylococcus epidermidis H 6966/08 after 24 hrs by broth microdilution method; format: functional; settings: H 6966/08, 24 h
Klebsiella pneumoniae [2] = assay: Antibacterial activity against Klebsiella pneumoniae D 11750/08 after 48 hrs by broth microdilution method; format: functional; settings: D 11750/08, 48 h
Staphylococcus aureus [3] = assay: Antibacterial activity against Staphylococcus aureus ATCC 6538 after 24 hrs by broth microdilution method; format: functional; settings: ATCC 6538, 24 h
Aspergillus fumigatus [4] = assay: Antifungal activity against Aspergillus fumigatus 231 after 24 hrs by broth microdilution method; format: functional, organism-based; settings: Aspergillus fumigatus, 231, 24 h
[5] = tested on: Trichophyton mentagrophytes; assay: Antifungal activity against Trichophyton mentagrophytes 445 after 72 hrs by broth microdilution method; format: functional, organism-based; settings: Trichophyton mentagrophytes, 445, 72 h
Mycobacterium kansasii [6] = assay: Antimycobacterial activity against Mycobacterium kansasii 6509/96 after 21 days by micromethod; format: functional; settings: 6509/96, 504 h
Mycobacterium kansasii [7] = assay: Antimycobacterial activity against Mycobacterium kansasii CNCTC My 235/80 after 7 days by micromethod; format: functional; settings: CNCTC My 235/80, 168 h
Nakaseomyces glabratus [8] = assay: Antifungal activity against Candida glabrata 20/I after 48 hrs by broth microdilution method; format: functional
Pseudomonas aeruginosa [9] = assay: Antibacterial activity against Pseudomonas aeruginosa ATCC 9027 after 24 hrs by broth microdilution method; format: functional; settings: ATCC 9027, 24 h
Candida tropicalis [10] = assay: Antifungal activity against Candida tropicalis 156 after 24 hrs by broth microdilution method; format: functional; settings: Candida tropicalis, 156, 24 h
Mycobacterium kansasii [11] = assay: Antimycobacterial activity against Mycobacterium kansasii 6509/96 after 7 days by micromethod; format: functional; settings: 6509/96, 168 h
Nakaseomyces glabratus [12] = assay: Antifungal activity against Candida glabrata 20/I after 24 hrs by broth microdilution method; format: functional
Escherichia coli [13] = assay: Antibacterial activity against Escherichia coli ATCC 8739 after 48 hrs by broth microdilution method; format: functional; settings: ATCC 8739, ATCC 8739, 48 h
Mycobacterium avium [14] = assay: Antimycobacterial activity against Mycobacterium avium CNCTC My 330/88 after 14 days by micromethod; format: functional; settings: CNCTC My 330/88, 336 h
Klebsiella pneumoniae [15] = assay: Antibacterial activity against extended spectrum beta-lactamase producing Klebsiella pneumoniae J 14368/08 after 48 hrs by broth microdilution method; format: functional; settings: J 14368/08, 48 h
Mycobacterium kansasii [16] = assay: Antimycobacterial activity against Mycobacterium kansasii 6509/96 after 14 days by micromethod; format: functional; settings: 6509/96, 336 h
Mycobacterium kansasii [17] = assay: Antimycobacterial activity against Mycobacterium kansasii CNCTC My 235/80 after 14 days by micromethod; format: functional; settings: CNCTC My 235/80, 336 h
Staphylococcus aureus [18] = assay: Antibacterial activity against methicillin-resistant Staphylococcus aureus H 5996/08 after 24 hrs by broth microdilution method; format: functional; settings: H 5996/08, 24 h
[19] = tested on: Trichophyton mentagrophytes; assay: Antifungal activity against Trichophyton mentagrophytes 445 after 120 hrs by broth microdilution method; format: functional, organism-based; settings: Trichophyton mentagrophytes, 445, 120 h
Candida albicans [20] = assay: Antifungal activity against Candida albicans ATCC 44859 after 48 hrs by broth microdilution method; format: functional; settings: ATCC 44859, 48 h
Klebsiella pneumoniae [21] = assay: Antibacterial activity against extended spectrum beta-lactamase producing Klebsiella pneumoniae J 14368/08 after 24 hrs by broth microdilution method; format: functional; settings: J 14368/08, 24 h
Trichosporon asahii [22] = assay: Antifungal activity against Trichosporon asahii 1188 after 48 hrs by broth microdilution method; format: functional; settings: Trichosporon asahii, 1188, 48 h
[23] = tested on: Mycobacterium tuberculosis; assay: Antimycobacterial activity against Mycobacterium tuberculosis CNCTC My 331/88 after 14 days by micromethod; format: functional; settings: CNCTC My 331/88, 336 h
[24] = tested on: Staphylococcus epidermidis; assay: Antibacterial activity against Staphylococcus epidermidis H 6966/08 after 48 hrs by broth microdilution method; format: functional; settings: H 6966/08, 48 h
Staphylococcus aureus [25] = assay: Antibacterial activity against Staphylococcus aureus ATCC 6538 after 48 hrs by broth microdilution method; format: functional; settings: ATCC 6538, 48 h
Pichia kudriavzevii [26] = assay: Antifungal activity against Candida krusei E28 after 48 hrs by broth microdilution method; format: functional; settings: E28, 48 h
Lichtheimia corymbifera [27] = assay: Antifungal activity against Absidia corymbifera 272 after 24 hrs by broth microdilution method; format: functional, organism-based; settings: Lichtheimia corymbifera, 272, 24 h
Enterococcus faecalis [28] = assay: Antibacterial activity against Enterococcus faecalis J 14365/08 after 48 hrs by broth microdilution method; format: functional; settings: J 14365/08, 48 h
Klebsiella pneumoniae [29] = assay: Antibacterial activity against Klebsiella pneumoniae D 11750/08 after 24 hrs by broth microdilution method; format: functional; settings: D 11750/08, 24 h
Mycobacterium avium [30] = assay: Antimycobacterial activity against Mycobacterium avium CNCTC My 330/88 after 21 days by micromethod; format: functional; settings: CNCTC My 330/88, 504 h
Trichosporon asahii [31] = assay: Antifungal activity against Trichosporon asahii 1188 after 24 hrs by broth microdilution method; format: functional; settings: Trichosporon asahii, 1188, 24 h
Mycobacterium kansasii [32] = assay: Antimycobacterial activity against Mycobacterium kansasii CNCTC My 235/80 after 21 days by micromethod; format: functional; settings: CNCTC My 235/80, 504 h
Pseudomonas aeruginosa [33] = assay: Antibacterial activity against Pseudomonas aeruginosa ATCC 9027 after 48 hrs by broth microdilution method; format: functional; settings: ATCC 9027, 48 h
Aspergillus fumigatus [34] = assay: Antifungal activity against Aspergillus fumigatus 231 after 48 hrs by broth microdilution method; format: functional, organism-based; settings: Aspergillus fumigatus, 231, 48 h
Candida tropicalis [35] = assay: Antifungal activity against Candida tropicalis 156 after 48 hrs by broth microdilution method; format: functional; settings: Candida tropicalis, 156, 48 h
Staphylococcus aureus [36] = assay: Antibacterial activity against methicillin-resistant Staphylococcus aureus H 5996/08 after 48 hrs by broth microdilution method; format: functional; settings: H 5996/08, 48 h
[37] = tested on: Mycobacterium tuberculosis; assay: Antimycobacterial activity against Mycobacterium tuberculosis CNCTC My 331/88 after 21 days by micromethod; format: functional; settings: CNCTC My 331/88, 504 h
Escherichia coli [38] = assay: Antibacterial activity against Escherichia coli ATCC 8739 after 24 hrs by broth microdilution method; format: functional; settings: ATCC 8739, ATCC 8739, 24 h
Enterococcus faecalis [39] = assay: Antibacterial activity against Enterococcus faecalis J 14365/08 after 24 hrs by broth microdilution method; format: functional; settings: J 14365/08, 24 h
Pichia kudriavzevii [40] = assay: Antifungal activity against Candida krusei E28 after 24 hrs by broth microdilution method; format: functional; settings: E28, 24 h
Candida albicans [41] = assay: Antifungal activity against Candida albicans ATCC 44859 after 24 hrs by broth microdilution method; format: functional; settings: ATCC 44859, 24 h
Lichtheimia corymbifera [42] = assay: Antifungal activity against Absidia corymbifera 272 after 48 hrs by broth microdilution method; format: functional, organism-based; settings: Lichtheimia corymbifera, 272, 48 h
[43] = Cytotoxicity against human HeLa cells assessed as cell viability at 30 uM after 48 hrs by MTT assay; format: cell-based; settings: read-out: Activity
[44] = Cytotoxicity against MDCK2 cells assessed as reduction in cell viability after 48 hrs by MTT assay; format: cell-based; settings: Canis lupus familiaris, MDCK-II
[45] = Cytotoxicity against human HuH7 cells assessed as reduction in cell viability after 48 hrs by MTT assay; format: cell-based; settings: Huh-7, 48 h
HeLa = assay: Cytotoxicity against human HeLa cells assessed as reduction in cell viability after 48 hrs by MTT assay; format: cell-based
[46] = Cytotoxicity against human HepG2 cells assessed as cell viability at 30 uM after 48 hrs by MTT assay; format: cell-based; settings: read-out: Activity
[47] = Cytotoxicity against human HuH7 cells assessed as cell viability at 30 uM after 48 hrs by MTT assay; format: cell-based, Huh-7; settings: read-out: Activity
[48] = Cytotoxicity against MDCK2 cells assessed as cell viability at 30 uM after 48 hrs by MTT assay; format: cell-based, Canis lupus familiaris, MDCK-II; settings: dog, read-out: Activity
HepG2 = assay: Cytotoxicity against human HepG2 cells assessed as reduction in cell viability after 48 hrs by MTT assay; format: cell-based; settings: HepG2, 48 h

Question: Which results are given for O=[N+]([O-])c1cc(CSc2cccc[n+]2[O-])cc([N+](=O)[O-])c1?
Answer: IC95 [1]: > 500 µM; IC95 (Klebsiella pneumoniae [2]): > 500 µM; IC95 (Staphylococcus aureus [3]): > 500 µM; IC50 (Aspergillus fumigatus [4]): > 500 µM; IC50 [5]: > 500 µM; MIC (Mycobacterium kansasii [6]): 125 µM (≈ 38.4 µg/mL); MIC (Mycobacterium kansasii [7]): 16 µM (≈ 4.92 µg/mL); IC80 (Nakaseomyces glabratus [8]): > 500 µM; IC95 (Pseudomonas aeruginosa [9]): > 500 µM; IC80 (Candida tropicalis [10]): > 500 µM; MIC (Mycobacterium kansasii [11]): 125 µM (≈ 38.4 µg/mL); IC80 (Nakaseomyces glabratus [12]): > 500 µM; IC95 (Escherichia coli [13]): > 500 µM; MIC (Mycobacterium avium [14]): 500 µM (≈ 154 µg/mL); IC95 (Klebsiella pneumoniae [15]): > 500 µM; MIC (Mycobacterium kansasii [16]): 125 µM (≈ 38.4 µg/mL); MIC (Mycobacterium kansasii [17]): 32 µM (≈ 9.83 µg/mL); IC95 (Staphylococcus aureus [18]): > 500 µM; IC50 [19]: > 500 µM; IC80 (Candida albicans [20]): > 500 µM; IC95 (Klebsiella pneumoniae [21]): > 500 µM; IC80 (Trichosporon asahii [22]): > 500 µM; MIC [23]: 62 µM (≈ 19.1 µg/mL); IC95 [24]: > 500 µM; IC95 (Staphylococcus aureus [25]): > 500 µM; IC80 (Pichia kudriavzevii [26]): > 500 µM; IC50 (Lichtheimia corymbifera [27]): > 500 µM; IC95 (Enterococcus faecalis [28]): > 500 µM; IC95 (Klebsiella pneumoniae [29]): > 500 µM; MIC (Mycobacterium avium [30]): 1000 µM (≈ 307 µg/mL); IC80 (Trichosporon asahii [31]): > 500 µM; MIC (Mycobacterium kansasii [32]): 32 µM (≈ 9.83 µg/mL); IC95 (Pseudomonas aeruginosa [33]): > 500 µM; IC50 (Aspergillus fumigatus [34]): > 500 µM; IC80 (Candida tropicalis [35]): > 500 µM; IC95 (Staphylococcus aureus [36]): > 500 µM; MIC [37]: 62 µM (≈ 19.1 µg/mL); IC95 (Escherichia coli [38]): > 500 µM; IC95 (Enterococcus faecalis [39]): > 500 µM; IC80 (Pichia kudriavzevii [40]): > 500 µM; IC80 (Candida albicans [41]): > 500 µM; IC50 (Lichtheimia corymbifera [42]): > 500 µM

Question: What does the source list for O=[N+]([O-])c1cc(CSc2nnnn2C2CCCCC2)cc([N+](=O)[O-])c1?
Answer: IC95 [1]: > 500 µM; IC95 (Klebsiella pneumoniae [2]): > 500 µM; viability at 48 h, 30 µM [43]: 84%; IC95 (Staphylococcus aureus [3]): > 500 µM; IC50 (Aspergillus fumigatus [4]): > 500 µM; IC50 [5]: > 500 µM; MIC (Mycobacterium kansasii [6]): 4 µM (≈ 1.46 µg/mL); MIC (Mycobacterium kansasii [7]): 4 µM (≈ 1.46 µg/mL); IC80 (Nakaseomyces glabratus [8]): > 500 µM; IC95 (Pseudomonas aeruginosa [9]): > 500 µM; IC80 (Candida tropicalis [10]): > 500 µM; MIC (Mycobacterium kansasii [11]): 2 µM (≈ 0.729 µg/mL); IC80 (Nakaseomyces glabratus [12]): > 500 µM; IC95 (Escherichia coli [13]): > 500 µM; MIC (Mycobacterium avium [14]): 16 µM (≈ 5.83 µg/mL); IC95 (Klebsiella pneumoniae [15]): > 500 µM; MIC (Mycobacterium kansasii [16]): 2 µM (≈ 0.729 µg/mL); MIC (Mycobacterium kansasii [17]): 4 µM (≈ 1.46 µg/mL); IC95 (Staphylococcus aureus [18]): > 500 µM; IC50 [19]: > 500 µM; IC80 (Candida albicans [20]): > 500 µM; IC95 (Klebsiella pneumoniae [21]): > 500 µM; IC80 (Trichosporon asahii [22]): > 500 µM; MIC [23]: 1 µM (≈ 0.364 µg/mL); IC50 [44]: > 30 µM; IC95 [24]: > 500 µM; IC95 (Staphylococcus aureus [25]): > 500 µM; IC50 [45]: > 30 µM; IC80 (Pichia kudriavzevii [26]): > 500 µM; IC50 (Lichtheimia corymbifera [27]): > 500 µM; IC95 (Enterococcus faecalis [28]): > 500 µM; IC95 (Klebsiella pneumoniae [29]): > 500 µM; IC50 (HeLa): > 30 µM; MIC (Mycobacterium avium [30]): 32 µM (≈ 11.7 µg/mL); viability at 48 h, 30 µM [46]: 88%; viability at 48 h, 30 µM [47]: 128%; IC80 (Trichosporon asahii [31]): > 500 µM; MIC (Mycobacterium kansasii [32]): 4 µM (≈ 1.46 µg/mL); viability at 48 h, 30 µM [48]: 98%; IC95 (Pseudomonas aeruginosa [33]): > 500 µM; IC50 (Aspergillus fumigatus [34]): > 500 µM; IC80 (Candida tropicalis [35]): > 500 µM; IC50 (HepG2): > 30 µM; IC95 (Staphylococcus aureus [36]): > 500 µM; MIC [37]: 1 µM (≈ 0.364 µg/mL); IC95 (Escherichia coli [38]): > 500 µM; IC95 (Enterococcus faecalis [39]): > 500 µM; IC80 (Pichia kudriavzevii [40]): > 500 µM; IC80 (Candida albicans [41]): > 500 µM; IC50 (Lichtheimia corymbifera [42]): > 500 µM

— ChEMBL document CHEMBL3297661, “1-Substituted-5-[(3,5-dinitrobenzyl)sulfanyl]-1H-tetrazoles and their isosteric analogs: A new class of selective antitubercular agents active against drug-susceptible and multidrug-resistant mycobacteria” (Eur J Med Chem, 2014)
